Results taken from US20250360214A1, “NON-TOXIC PHOTOSENSITIZER COMPOSITION AND TWO-COMPONENT TYPE PHOTOSENSITIZER COMPOSITION COMPRISING THE SAME” (priority 2024, published 2025).
Where a name gives a salt, the structure may show the parent alone.

Columns and labels:
[1] = background statement; cited from earlier work
RAW264.7 = experiment: Cytotoxicity test (MTT assay) of solvent components PEG, DMSO and HCl; type: cell-based; conditions: RAW264.7, MTT assay, FIG. 1
Procedure: RAW264.7 (5×10^5 cells/well in 6 well plate) was used as a cell line, and 1XDMEM (supplemented with 7% FBS and 1% antibiotics) medium (Thermo fisher scientific, 11995-065) was used.
Raw264.7 cells, which may be animal model cells, were seeded into 6 well plates containing 2 mL of DMEM medium to have an initial cell number of 5×10^5 cells/well, and then cultured in a CO2 incubator at 37° C. for 1 day under CO2 conditions. After 1 day of culture, solvent composition samples were added and cultured for an additional 2 days under the same conditions, respectively. After that, MTT assay was performed to confirm cytotoxicity.
In this case, the MTT assay method using an MTT assay kit (EZ-CYTOX-company, Dogenbio-model number: EZ-500) first prepared 5×10^5/well (total vol. 2 ml) in a 6-well plate for seeding, and then cultured for 24 h under 37° C., 5% CO2 conditions. A blank (only media) without cells was also prepared at the same time. An experimental material was treated according to conditions, and then cultured and reacted for 24 h under 37° C./5% CO2 conditions. Additionally, 200 μL Ez-cytox ( 1/10) was added to each of the wells, and reacted for 1 h. The wells were shaken gently before measuring absorbance, 200 μL thereof was then transferred to a 96-well plate, the absorbance was measured at a wavelength of 450 nm, and a viability rate was calculated according to the following equation (1).

Compound	water solubility [1]	concentration at which no toxicity was observed (RAW264.7)
3-[(3, 5-dimethyl-1H-pyrazole-4-yl)methyl]-3-devinylpyropheophorbide-a methyl ester [MPP100]	extremely low water solubility	–
C[S+](C)[O-] [DMSO, dimethylsulfoxide]	–	≤ 2 vol %
Cl [HCl, hydrochloric acid]	–	≤ 10 mN
polyethylene glycol [PEG]	–	≤ 3 vol %
